Patent publication EP0426075A1, “Benzylpyrrolidine derivatives as dopamine agonists” (SYNTEX (U.S.A.) INC., priority 1989, dated 1991)

Legend:
[1] = tested on: DA2 receptor; test: Goldberg in situ femoral arterial preparation (DA2 assay), intra-arterial injection; assay type: in vivo, dog; details: optimal response of test compound divided by optimal response of DPDA
Protocol: (§1) The compounds were subsequently tested following intra-arterial administration in an in situ renal and femoral arterial preparation in the dog, as developed by L.I. Goldberg, to test for DA1 and DA2 dopamine activity, respectively. Details of the methodology are provided in the European J. Pharmacol. 89 :137, 1983, as well as in Hypertension 6 :1-25, 1984.
as §1, with “compounds of this invention” for “compounds”, “were” for “were subsequently”, “Pharmacol. ,” for “Pharmacol.”, “Hypertension ,” for “Hypertension”, “1984. J. L. McNay, L. I. Goldberg JPET 151 :23-31, 1966.” for “1984.”
(§2) The compounds were injected directly into the renal or femoral artery for analysis of DA, or DA2 activity, respectively. […] The compounds were tested for relative activity in comparison to the standard DA, agonist, dopamine or the standard DA2 agonist, DPDA. Specific DA, or DA2 activity of the tested compound was verified by Sch 23390 or domperidone blockade.
(§3) Adult mongrel dogs of either sex (12-20 kg) were anesthetized with pentobarbital sodium (33 mg/kg, i.v.). The animals were intubated and ventilated with room air using a Harvard respirator.
as §1, with “compounds of this invention” for “compounds”, “were” for “were subsequently”, “Pharmacol. ,” for “Pharmacol.”, “Hypertension ,” for “Hypertension”, “1984. J. L. McNay, L. I. Goldberg JPET 151 :23-31, 1966” for “1984.”
as §2, with “of DA1” for “of DA,”, “standard DA1” for “standard DA,”
The thoracic aorta was catheterized with a Millar micro-tip (size 5F) transducer via the right carotid artery for blood pressure monitoring. The right external jugular vein was cannulated with PE-160 tubing for supplemental pentobarbital administration. The left femoral artery was isolated and an electromagnetic flowprobe of the appropriate size (8-11 mm circ.) was placed around the artery and connected to a Caroline Medical electromagnetic flowmeter. Surface ECG leads were placed subcutaneously on the chest and limbs to monitor heart rate. A 25 gauge 3/4" needle bent 90` , 4 mm from the tip, was placed in the femoral artery proximal to the probe and connected to an infusion pump delivering saline at a constant rate of 1 ml/min. Following a saline and bradykinin challenge (0.02 to 0.04 nmoles, in 0.2 ml saline, i.a.), a dose response curve for DPDA was generated by injecting 4-fold increasing doses i.a. ranging from 3 to 48 nmoles in 0.2 ml saline. Test compounds were injected similarly in 4-fold increasing doses up to 3000 nmoles. Compounds were then repeated at their optimal dose following domperidone pretreatment (10-40 Ilg/kg, iv).
Efficacy ratios were determined by division of the optimal response of the test compound by the optimal response of the standard agent. The optimal dose of compound was defined as that which produced a maximum increase in blood flow before causing a change in systemic blood pressure. ED50 values were derived by regression analysis from individually generated dose response curves. Potency ratios were the quotients calculated from the division of the standard agent EDso by the ED50 of the test compound. […] If the inhibition of the test compound was similar to that of dopamine or DPDA, the compound was considered to be a DA, or DA2 agonist, respectively.

[2] = tested on: DA1 receptor; test: Goldberg in situ renal arterial preparation (renal DA1 assay), intra-arterial injection; assay type: in vivo, dog; details: optimal response of test compound divided by optimal response of dopamine
Protocol: as §1
as §1, with “compounds of this invention” for “compounds”, “were” for “were subsequently”, “Pharmacol. ,” for “Pharmacol.”, “Hypertension ,” for “Hypertension”, “1984. J. L. McNay, L. I. Goldberg JPET 151 :23-31, 1966.” for “1984.”
as §2, §3
as §1, with “compounds of this invention” for “compounds”, “were” for “were subsequently”, “Pharmacol. ,” for “Pharmacol.”, “Hypertension ,” for “Hypertension”, “1984. J. L. McNay, L. I. Goldberg JPET 151 :23-31, 1966” for “1984.”
as §2, with “of DA1” for “of DA,”, “standard DA1” for “standard DA,”
The abdominal aorta was catheterized with a Millar micro-tip (size: 5F) transducer via the right femoral artery for blood pressure monitoring. The right femoral vein was cannulated with PE-160 tubing for iv saline infusion, as well as supplemental pentobarbital administration. The left renal artery was isolated through a lateral abdominal incision. An electromagnetic flowprobe of the appropriate size (8-11 mm circ.) was placed around the artery and connected to a Carolina Medical electromagnetic flowmeter. Surface ECG leads were placed subcutaneously on the chest and limbs to monitor heart rate. A 25 gauge 3/4" needle bent 90°, 4 mm from the tip, was placed in the renal artery proximal to the probe and connected to an infusion pump delivering saline at a constant rate of 1 ml/min. Following a saline and 1µg norepinephrine (NE) challenge, both given in an injection volume of 0.2 ml, the animal was treated with a phenoxybenzamine, 0.5 mg/kg/min i.a., infusion for a duration of 10-20 minutes as necessary to achieve a complete blockade of the NE challenge. Blood pressure was maintained by supplemental saline infusion (10-20 ml/kg, iv). Bradykinin, a standard for nonspecific vasodilation, was given at 0.60 nmole doses, in 0.2 ml saline, i.a., prior to generating a dose response curve for dopamine in which 4-fold increasing doses, ranging from 3 to 48 nmoles, were injected i.a. in 0.2 ml of saline (i.a. bolus). Test compounds were injected similarly in 4-fold increasing doses up to a maximum of 3000 nmoles. Compounds were then repeated at their optimal dose following Sch 23390 pretreatment (0.05 - 0.10 mg/kg, iv).
Efficacy ratios were determined by division of the optimal response of the test compound by the optimal response of the standard agent.

Row | Structure (SMILES) | Relative Efficacy to DA2 Standard [1] | Relative Efficacy to DA1 Standard [2]
1 | CCCN(CCC)CCc1ccc(O)c(O)c1 [DPDA, di-propyl dopamine, reference compound] | 1.00 | 
2 | Cl.NCCc1ccc(O)c(O)c1 [Dopamine, 4-(2-aminoethyl)-1,2-Benzenediol hydrochloride] |  | 1.00
